Data as given in patent US8299111B2, “Compounds which modulate the CB2 receptor” (Boehringer Ingelheim International GmbH, priority 2006, dated 2012).

Biological target: T1, human CB2R (Homo sapiens, UniProt P34972)
T1 construct: host or cells: CHO cells
Test: CB2R mediated modulation of cAMP synthesis
Assay type: cell-based
Conditions: found through the use of the above described assays (binding and cAMP); CHO cells expressing human CB2R, forskolin-stimulated cAMP
How it was run: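 EC50 values reflect inhibition of cAMP made in response to 10 uM forskolin (with 1 mM IBMX, 0.25% BSA) over 30 min at 37 °C in human CB2R-expressing CHO cells. The window runs from forskolin alone to 1 uM CP55940; curves fitted with a four-parameter logistic model.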

T1 sequence (P34972 whole entry): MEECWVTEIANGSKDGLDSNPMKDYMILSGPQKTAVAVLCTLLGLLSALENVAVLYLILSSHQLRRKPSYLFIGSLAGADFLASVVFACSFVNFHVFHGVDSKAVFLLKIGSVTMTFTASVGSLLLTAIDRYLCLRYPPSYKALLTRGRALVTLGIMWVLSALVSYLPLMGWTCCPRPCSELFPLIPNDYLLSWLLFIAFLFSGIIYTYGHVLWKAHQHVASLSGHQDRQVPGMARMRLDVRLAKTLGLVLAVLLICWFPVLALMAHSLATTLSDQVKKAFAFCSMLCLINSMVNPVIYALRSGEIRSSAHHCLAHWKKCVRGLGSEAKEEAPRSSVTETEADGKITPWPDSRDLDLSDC

SMILES | agonistic activity
Cc1nc(NC(=O)C(C)(C)S(=O)(=O)c2ccccc2F)sc1C(C)(C)C [N-(5-tert-Butyl-4-methyl-thiazol-2-yl)-2-(2-fluoro-benzenesulfonyl)-2-methyl-propionamide] | agonistic activity
Cc1nc(NC(=O)C(C)(C)S(=O)(=O)c2ccc(Cl)c(Cl)c2)sc1C(C)(C)C [N-(5-tert-Butyl-4-methyl-thiazol-2-yl)-2-(3,4-dichloro-benzenesulfonyl)-2-methyl-propionamide] | agonistic activity
Cc1nc(NC(=O)C(C)(C)S(=O)(=O)c2cccc(F)c2)sc1C(C)(C)C [N-(5-tert-Butyl-4-methyl-thiazol-2-yl)-2-(3-fluoro-benzenesulfonyl)-2-methyl-propionamide] | agonistic activity
Cc1nc(NC(=O)C(C)(C)S(=O)(=O)c2ccc(Cl)cc2)sc1C(C)(C)C [N-(5-tert-Butyl-4-methyl-thiazol-2-yl)-2-(4-chloro-benzenesulfonyl)-2-methyl-propionamide] | agonistic activity
COc1ccc(S(=O)(=O)C(C)(C)C(=O)Nc2nc(C)c(C(C)(C)C)s2)cc1 [N-(5-tert-Butyl-4-methyl-thiazol-2-yl)-2-(4-methoxy-benzenesulfonyl)-2-methyl-propionamide] | agonistic activity
Cc1nc(NC(=O)C(C)(C)S(=O)(=O)c2cccc(C(F)(F)F)c2)sc1C(C)(C)C [N-(5-tert-Butyl-4-methyl-thiazol-2-yl)-2-methyl-2-(3-trifluoromethyl-benzenesulfonyl)-propionamide] | agonistic activity
Cc1nc(NC(=O)C(C)(C)S(=O)(=O)c2ccc(C(F)(F)F)cc2)sc1C(C)(C)C [N-(5-tert-Butyl-4-methyl-thiazol-2-yl)-2-methyl-2-(4-trifluoromethyl-benzenesulfonyl)-propionamide] | agonistic activity
Cc1nc(NC(=O)C(C)(C)S(=O)(=O)c2ccc(C(F)(F)F)nc2)sc1C(C)(C)C [N-(5-tert-Butyl-4-methyl-thiazol-2-yl)-2-methyl-2-(6-trifluoromethyl-pyridine-3-sulfonyl)-propionamide] | agonistic activity
Cc1nc(NC(=O)C(C)(C)S(=O)(=O)c2ccc3ccccc3c2)sc1C(C)(C)C [N-(5-tert-Butyl-4-methyl-thiazol-2-yl)-2-methyl-2-(naphthalene-2-sulfonyl)-propionamide] | agonistic activity
Cc1ccccc1S(=O)(=O)C(C)(C)C(=O)Nc1nc(C)c(C(C)(C)C)s1 [N-(5-tert-Butyl-4-methyl-thiazol-2-yl)-2-methyl-2-(toluene-2-sulfonyl)-propionamide] | agonistic activity
Cc1ccc(S(=O)(=O)C(C)(C)C(=O)Nc2nc(C)c(C(C)(C)C)s2)cc1 [N-(5-tert-Butyl-4-methyl-thiazol-2-yl)-2-methyl-2-(toluene-4-sulfonyl)-propionamide] | agonistic activity
Cc1nc(NC(=O)C(C(C)C)S(=O)(=O)c2ccc(C(F)(F)F)cc2)sc1C(C)(C)C (centres unmarked) [N-(5-tert-Butyl-4-methyl-thiazol-2-yl)-3-methyl-2-(4-trifluoromethyl-benzenesulfonyl)-butyramide] | agonistic activity
CC(C)(C)c1nnc(NC(=O)C(C)(C)S(=O)(=O)c2ccc(Cl)cc2)s1 [N-(5-tert-Butyl-[1,3,4]thiadiazol-2-yl)-2-(4-chloro-benzenesulfonyl)-2-methyl-propionamide] | agonistic activity
CC1(C)CCc2cc(S(=O)(=O)C(C)(C)C(=O)Nc3cc(C(C)(C)C)on3)ccc2O1 [N-(5-tert-Butyl-isoxazol-3-yl)-2-(2,2-dimethyl-chroman-6-sulfonyl)-2-methyl-propionamide] | agonistic activity
CC(C)(C)c1cc(NC(=O)C(C)(C)S(=O)(=O)c2ccc(Cl)cc2Cl)no1 [N-(5-tert-Butyl-isoxazol-3-yl)-2-(2,4-dichloro-benzenesulfonyl)-2-methyl-propionamide] | agonistic activity
CC(C)(C)c1cc(NC(=O)C(C)(C)S(=O)(=O)c2ccc(F)cc2F)no1 [N-(5-tert-Butyl-isoxazol-3-yl)-2-(2,4-difluoro-benzenesulfonyl)-2-methyl-propionamide] | agonistic activity
CC(C)(C)c1cc(NC(=O)C(C)(C)S(=O)(=O)c2cc(F)ccc2F)no1 [N-(5-tert-Butyl-isoxazol-3-yl)-2-(2,5-difluoro-benzenesulfonyl)-2-methyl-propionamide] | agonistic activity
Cc1ccc(S(=O)(=O)C(C)(C)C(=O)Nc2cc(C(C)(C)C)on2)c(F)c1 [N-(5-tert-Butyl-isoxazol-3-yl)-2-(2-fluoro-4-methyl-benzenesulfonyl)-2-methyl-propionamide] | agonistic activity
CC(C)(C)c1cc(NC(=O)C(C)(C)S(=O)(=O)c2ccccc2F)no1 [N-(5-tert-Butyl-isoxazol-3-yl)-2-(2-fluoro-benzenesulfonyl)-2-methyl-propionamide] | agonistic activity

SMILES | agonistic activity
CC(C)(C)c1cc(NC(=O)C(C)(C)S(=O)(=O)c2ccc(Cl)c(Cl)c2)no1 [N-(5-tert-Butyl-isoxazol-3-yl)-2-(3,4-dichloro-benzenesulfonyl)-2-methyl-propionamide] | agonistic activity
CC(C)(C)c1cc(NC(=O)C(C)(C)S(=O)(=O)c2ccc(F)c(Cl)c2)no1 [N-(5-tert-Butyl-isoxazol-3-yl)-2-(3-chloro-4-fluoro-benzenesulfonyl)-2-methyl-propionamide] | agonistic activity
CC(C)(C)c1cc(NC(=O)C(C)(C)S(=O)(=O)c2cccc(C#N)c2)no1 [N-(5-tert-Butyl-isoxazol-3-yl)-2-(3-cyano-benzenesulfonyl)-2-methyl-propionamide] | agonistic activity
COc1ccc(S(=O)(=O)C(C)(C)C(=O)Nc2cc(C(C)(C)C)on2)cc1F [N-(5-tert-Butyl-isoxazol-3-yl)-2-(3-fluoro-4-methoxy-benzenesulfonyl)-2-methyl-propionamide] | agonistic activity
Cc1ccc(S(=O)(=O)C(C)(C)C(=O)Nc2cc(C(C)(C)C)on2)cc1F [N-(5-tert-Butyl-isoxazol-3-yl)-2-(3-fluoro-4-methyl-benzenesulfonyl)-2-methyl-propionamide] | agonistic activity
CC(C)(C)c1cc(NC(=O)C(C)(C)S(=O)(=O)c2cccc(F)c2)no1 [N-(5-tert-Butyl-isoxazol-3-yl)-2-(3-fluoro-benzenesulfonyl)-2-methyl-propionamide] | agonistic activity
CC(C)(C)c1cc(NC(=O)C(C)(C)S(=O)(=O)c2cc(Cl)c(Cl)s2)no1 [N-(5-tert-Butyl-isoxazol-3-yl)-2-(4,5-dichloro-thiophene-2-sulfonyl)-2-methyl-propionamide] | agonistic activity
CC(C)(C)c1cc(NC(=O)C(C)(C)S(=O)(=O)c2ccc(Cl)cc2F)no1 [N-(5-tert-Butyl-isoxazol-3-yl)-2-(4-chloro-2-fluoro-benzenesulfonyl)-2-methyl-propionamide] | agonistic activity
CC(C)(C)c1cc(NC(=O)C(C)(C)S(=O)(=O)c2ccc(Cl)cc2)no1 [N-(5-tert-Butyl-isoxazol-3-yl)-2-(4-chloro-benzenesulfonyl)-2-methyl-propionamide] | agonistic activity
CC(C)(C)c1cc(NC(=O)C(C)(C)S(=O)(=O)c2ccc(C#N)cc2F)no1 [N-(5-tert-Butyl-isoxazol-3-yl)-2-(4-cyano-2-fluoro-benzenesulfonyl)-2-methyl-propionamide] | agonistic activity
CC(C)(C)c1cc(NC(=O)C(C)(C)S(=O)(=O)c2ccc(C#N)cc2)no1 [N-(5-tert-Butyl-isoxazol-3-yl)-2-(4-cyano-benzenesulfonyl)-2-methyl-propionamide] | agonistic activity
CC(C)(C)c1cc(NC(=O)C(C)(C)S(=O)(=O)c2ccc(F)cc2)no1 [N-(5-tert-Butyl-isoxazol-3-yl)-2-(4-fluoro-benzenesulfonyl)-2-methyl-propionamide] | agonistic activity
CC(C)c1ccc(S(=O)(=O)C(C)(C)C(=O)Nc2cc(C(C)(C)C)on2)cc1 [N-(5-tert-Butyl-isoxazol-3-yl)-2-(4-isopropyl-benzenesulfonyl)-2-methyl-propionamide] | agonistic activity
CC(C)(C)c1cc(NC(=O)C(C)(C)S(=O)(=O)c2ccc(S(C)(=O)=O)cc2)no1 [N-(5-tert-Butyl-isoxazol-3-yl)-2-(4-methanesulfonyl-benzenesulfonyl)-2-methyl-propionamide] | agonistic activity
COc1ccc(S(=O)(=O)C(C)(C)C(=O)Nc2cc(C(C)(C)C)on2)cc1 [N-(5-tert-Butyl-isoxazol-3-yl)-2-(4-methoxy-benzenesulfonyl)-2-methyl-propionamide] | agonistic activity
CC(C)(C)c1cc(NC(=O)CS(=O)(=O)c2ccc(C(F)(F)F)cc2)no1 [N-(5-tert-Butyl-isoxazol-3-yl)-2-(4-trifluoromethyl-benzenesulfonyl)-acetamide] | agonistic activity
CC(C(=O)Nc1cc(C(C)(C)C)on1)S(=O)(=O)c1ccc(C(F)(F)F)cc1 (centres unmarked) [N-(5-tert-Butyl-isoxazol-3-yl)-2-(4-trifluoromethyl-benzenesulfonyl)-propionamide] | agonistic activity
CC(C)(C)c1cc(NC(=O)C(C)(C)S(=O)(=O)c2ccc(Cl)s2)no1 [N-(5-tert-Butyl-isoxazol-3-yl)-2-(5-chloro-thiophene-2-sulfonyl)-2-methyl-propionamide] | agonistic activity
CC(C)(C)c1cc(NC(=O)C(C)(C)S(=O)(=O)c2ccc(Cl)nc2)no1 [N-(5-tert-Butyl-isoxazol-3-yl)-2-(6-chloro-pyridine-3-sulfonyl)-2-methyl-propionamide] | agonistic activity
